For orientation: IC50 means the concentration at which inhibition is half-maximal.

The source of these data is patent US8691804B2 (Evotec AG, priority 2008, dated 2014).

The target of this experiment is T1, human H3 receptors (Homo sapiens, UniProt Q9Y5N1).
T1 construct: host or cells: CHO-K1
T1 sequence (Q9Y5N1 whole entry): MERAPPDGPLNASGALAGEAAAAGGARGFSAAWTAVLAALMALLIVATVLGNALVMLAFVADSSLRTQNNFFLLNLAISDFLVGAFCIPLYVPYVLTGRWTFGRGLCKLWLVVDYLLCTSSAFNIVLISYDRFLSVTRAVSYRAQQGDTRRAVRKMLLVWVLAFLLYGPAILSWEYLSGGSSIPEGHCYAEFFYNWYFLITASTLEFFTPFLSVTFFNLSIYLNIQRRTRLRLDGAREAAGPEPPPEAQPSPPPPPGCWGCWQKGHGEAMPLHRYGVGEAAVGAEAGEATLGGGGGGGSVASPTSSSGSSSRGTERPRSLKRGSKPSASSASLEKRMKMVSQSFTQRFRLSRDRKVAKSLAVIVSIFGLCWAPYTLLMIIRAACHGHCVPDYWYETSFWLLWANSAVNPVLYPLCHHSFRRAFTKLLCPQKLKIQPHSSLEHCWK
The experiment is described as follows: cAMP quantification assay for human H3 receptor testing. The class given is cell-based. Particulars: CHO-K1 cells expressing human H3 receptors; inhibition of agonist-induced decrease of cAMP; 100 nM histamine, 10 μM forskolin; read-out: Potency range (IC50 values). The method, boiled down: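 CHO-K1 cells expressing human H3 (10,000/well) were preincubated 30 min at 37 °C with compound in PBS containing 1 mM IBMX and 0.03% BSA. They were then challenged 30 min with agonist solution (100 nM histamine plus 10 μM forskolin). cAMP was quantified by enzyme-complementation luminescence, with 8 concentrations in triplicate at 1% DMSO.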
`CNC(=O)c1ccc(NC2CN(C(=O)N3CCCN(C4CCC4)CC3)C2)cn1` [Example 110, 5-({1-[(4-cyclobutyl-1,4-diazepan-1-yl)carbonyl]azetidin-3-yl}amino)-N-methylpyridine-2-carboxamide]: the IC50 is less than 100 nM. The result for `CNC(=O)c1ccc(N(C)C2CN(C(=O)N3CCCN(C4CCC4)CC3)C2)cn1` [Example 111, 5-[{1-[(4-cyclobutyl-1,4-diazepan-1-yl)carbonyl]azetidin-3-yl}(methyl)amino]-N-methylpyridine-2-carboxamide] reads less than 100 nM. The same measure for `N#Cc1ccc(CNC2CN(C(=O)N3CCCN(C4CCC4)CC3)C2)cc1` [Example 112, 4-[({1-[(4-cyclobutyl-1,4-diazepan-1-yl)carbonyl]azetidin-3-yl}amino)methyl]benzonitrile]: less than 100 nM; for `CNC(=O)c1ccc(OC2CN(C(=O)N3CCCN(C)CC3)C2)cn1` [Example 113, 5-({1-[(4-methyl-1,4-diazepan-1-yl)carbonyl]azetidin-3-yl}oxy)-N-methylpyridine-2-carboxamide]: 500 to 5000 nM. The result for `CNC(=O)c1ccc(OC2CN(C(=O)N3CCCN(C(C)C)CC3)C2)cn1` [Example 114, 5-({1-[(4-(1-methylethyl)-1,4-diazepan-1-yl)carbonyl]azetidin-3-yl}oxy)-N-methylpyridine-2-carboxamide] reads less than 100 nM; that for `CNC(=O)c1ccc(OC2CN(C(=O)N3CCCN(C4CCCC4)CC3)C2)cn1` [Example 115, 5-({1-[(4-cyclopentyl-1,4-diazepan-1-yl)carbonyl]azetidin-3-yl}oxy)-N-methylpyridine-2-carboxamide], less than 100 nM; that for `O=C1NCCc2cc(OC3CN(C(=O)N4CCCN(C5CCC5)CC4)C3)ccc21` [Example 116, 6-({1-[(4-cyclobutyl-1,4-diazepan-1-yl)carbonyl]azetidin-3-yl}oxy)-3,4-dihydroisoquinolin-1(2H)-one], less than 100 nM. Consider `CN1CCc2cc(OC3CN(C(=O)N4CCCN(C5CCC5)CC4)C3)ccc2C1=O` [Example 117, 6-({1-[(4-cyclobutyl-1,4-diazepan-1-yl)carbonyl]azetidin-3-yl}oxy)-2-methyl-3,4-dihydroisoquinolin-1(2H)-one], for which the concentration for half-maximal inhibition (IC50) was less than 100 nM. The same measure for `CC(C)(O)c1ccc(OC2CN(C(=O)N3CCCN(C4CCC4)CC3)C2)cn1` [Example 118, 2-[5-({1-[(4-cyclobutyl-1,4-diazepan-1-yl)carbonyl]azetidin-3-yl}oxy)pyridin-2-yl]propan-2-ol]: less than 100 nM; for `CC(=O)c1ccc(OC2CN(C(=O)N3CCCN(C4CCC4)CC3)C2)cn1` [Example 119, 1-[5-({1-[(4-cyclobutyl-1,4-diazepan-1-yl)carbonyl]azetidin-3-yl}oxy)pyridin-2-yl]ethanone]: less than 100 nM. For the compound `COc1cnc(OC2CN(C(=O)N3CCCN(C4CCC4)CC3)C2)nc1` [Example 120, 1-cyclobutyl-4-({3-[(5-methoxypyrimidin-2-yl)oxy]azetidin-1-yl}carbonyl)-1,4-diazepane], the half-inhibitory concentration (IC50) was less than 100 nM. Consider `Cc1ccc(OC2CN(C(=O)N3CCCN(C4CCC4)CC3)C2)cn1` [Example 121, 1-cyclobutyl-4-({3-[(6-methylpyridin-3-yl)oxy]azetidin-1-yl}carbonyl)-1,4-diazepane], for which the half-inhibitory concentration (IC50) is less than 100 nM.

For the compound `COC(=O)C1CN(C(=O)N2CCCN(C3CCC3)CC2)C1` [Example 122, methyl 1-[(4-cyclobutyl-1,4-diazepan-1-yl)carbonyl]azetidine-3-carboxylate], the IC50 is less than 100 nM. The same measure for `O=C(Nc1ccc(Cl)cc1)C1CN(C(=O)N2CCCN(C3CCC3)CC2)C1` [Example 123, N-(4-chlorophenyl)-1-[(4-cyclobutyl-1,4-diazepan-1-yl)carbonyl]azetidine-3-carboxamide]: less than 100 nM; for `O=C(C1CN(C(=O)N2CCCN(C3CCC3)CC2)C1)N1CCCCC1` [Example 124, 1-cyclobutyl-4-{[3-(piperidin-1-ylcarbonyl)azetidin-1-yl]carbonyl}-1,4-diazepane]: less than 100 nM; for `O=C(C1CN(C(=O)N2CCCN(C3CCC3)CC2)C1)N1CCOCC1` [Example 125, 1-cyclobutyl-4-{[3-(morpholin-4-ylcarbonyl)azetidin-1-yl]carbonyl}-1,4-diazepane]: less than 100 nM. The result for `O=C(C1CN(C(=O)N2CCCN(C3CCC3)CC2)C1)N1CCC1` [Example 126, 1-{[3-(azetidin-1-ylcarbonyl)azetidin-1-yl]carbonyl}-4-cyclobutyl-1,4-diazepane] reads less than 100 nM. The result for `O=C(C1CN(C(=O)N2CCCN(C3CCC3)CC2)C1)N1CCCC1` [Example 127, 1-cyclobutyl-4-{[3-(pyrrolidin-1-ylcarbonyl)azetidin-1-yl]carbonyl}-1,4-diazepane] reads less than 100 nM. As for `O=C(C1CN(C(=O)N2CCCN(C3CCC3)CC2)C1)N1CCCCCC1` [Example 128, 1-{[3-(azepan-1-ylcarbonyl)azetidin-1-yl]carbonyl}-4-cyclobutyl-1,4-diazepane], the IC50 was less than 100 nM. The same measure for `O=C(C1CN(C(=O)N2CCCN(C3CCC3)CC2)C1)N1CCC(F)CC1` [Example 129, 1-cyclobutyl-4-({3-[(4-fluoropiperidin-1-yl)carbonyl]azetidin-1-yl}carbonyl)-1,4-diazepane]: less than 100 nM. Consider `O=C(C1CN(C(=O)N2CCCN(C3CCC3)CC2)C1)N1CCC(F)(F)CC1` [Example 130, 1-cyclobutyl-4-({3-[(4,4-difluoropiperidin-1-yl)carbonyl]azetidin-1-yl}carbonyl)-1,4-diazepane], for which the IC50 is less than 100 nM. The same measure for `O=C(NC1CCCCC1)C1CN(C(=O)N2CCCN(C3CCC3)CC2)C1` [Example 131, 1-[(4-cyclobutyl-1,4-diazepan-1-yl)carbonyl]-N-cyclohexylazetidine-3-carboxamide]: less than 100 nM; for `Cc1ccc(NC(=O)C2CN(C(=O)N3CCCN(C4CCC4)CC3)C2)cn1` [Example 132, 1-[(4-cyclobutyl-1,4-diazepan-1-yl)carbonyl]-N-(6-methylpyridin-3-yl)azetidine-3-carboxamide]: less than 100 nM.

Regarding `CNC(=O)C1CN(C(=O)N2CCCN(C3CCC3)CC2)C1` [Example 133, 1-[(4-cyclobutyl-1,4-diazepan-1-yl)carbonyl]-N-methylazetidine-3-carboxamide], the 50% inhibitory concentration (IC50) fell in the range of 100 to 500 nM.

Consider `O=C(N1CCCN(C2CCC2)CC1)N1CC(CO)C1` [Example 134, {1-[(4-cyclobutyl-1,4-diazepan-1-yl)carbonyl]azetidin-3-yl}methanol], for which the half-maximal inhibitory concentration (IC50) was less than 100 nM. The same measure for `O=C(N1CCCN(C2CCC2)CC1)N1CC(COc2ccc(Cl)cc2)C1` [Example 135, 1-({3-[(4-chlorophenoxy)methyl]azetidin-1-yl}carbonyl)-4-cyclobutyl-1,4-diazepane]: less than 100 nM; for `O=C1NCCc2cc(OCC3CN(C(=O)N4CCCN(C5CCC5)CC4)C3)ccc21` [Example 136, 6-({1-[(4-cyclobutyl-1,4-diazepan-1-yl)carbonyl]azetidin-3-yl}methoxy)-3,4-dihydroisoquinolin-1(2H)-one]: less than 100 nM; for `CN1CCc2cc(OCC3CN(C(=O)N4CCCN(C5CCC5)CC4)C3)ccc2C1=O` [Example 137, 6-({1-[(4-cyclobutyl-1,4-diazepan-1-yl)carbonyl]azetidin-3-yl}methoxy)-2-methyl-3,4-dihydroisoquinolin-1(2H)-one]: less than 100 nM.
